Measured values reported in US9682991B2, “Tricyclic compounds for use as kinase inhibitors” (FUNDACIÓN CENTRO NACIONAL DE INVESTIGACIONES ONCOLOGICAS …, priority 2009, dated 2017).
Read-outs that look alike come from different tables or passages of the source.

Tests used:
PIM-1 = PIM-1 (Homo sapiens (Human), UniProt P11309); assay: PIM-1 biochemical assay (ADP Hunter)
PIM-2 = PIM-2 (Homo sapiens (Human), UniProt Q9P1W9); assay: PIM-2 biochemical assay (ADP Hunter); conditions: semi-quantitative; read-out: PIM2 IC50
Chain of PIM-2 (Q9P1W9 whole entry): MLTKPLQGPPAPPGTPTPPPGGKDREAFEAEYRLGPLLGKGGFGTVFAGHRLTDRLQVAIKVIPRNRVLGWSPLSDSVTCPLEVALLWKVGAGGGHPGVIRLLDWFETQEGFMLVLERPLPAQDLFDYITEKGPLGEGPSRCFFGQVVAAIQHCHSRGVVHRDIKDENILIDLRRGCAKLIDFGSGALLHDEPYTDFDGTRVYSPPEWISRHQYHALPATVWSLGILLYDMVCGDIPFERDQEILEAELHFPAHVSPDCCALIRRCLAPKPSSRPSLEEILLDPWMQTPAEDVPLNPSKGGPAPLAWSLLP
Source text: The biochemical assay to measure PIM-2 activity relies on the ADP Hunter assay kit (DiscoveRx Corp., Cat. #90-0077), that determines the amount of ADP as direct product of the kinase enzyme activity.

[1] = read-out: PIM1 IC50, semi-quantitative

Chain of PIM-1 (P11309 whole entry): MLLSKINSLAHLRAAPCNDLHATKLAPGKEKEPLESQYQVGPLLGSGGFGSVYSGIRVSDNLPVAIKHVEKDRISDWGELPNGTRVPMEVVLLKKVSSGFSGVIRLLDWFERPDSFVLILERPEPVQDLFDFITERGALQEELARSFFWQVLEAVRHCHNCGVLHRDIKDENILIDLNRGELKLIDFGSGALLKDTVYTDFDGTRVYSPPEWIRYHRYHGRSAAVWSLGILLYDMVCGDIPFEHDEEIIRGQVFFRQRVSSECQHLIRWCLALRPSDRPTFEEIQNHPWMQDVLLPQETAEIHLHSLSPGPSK

SMILES | IC50 (PIM-1) [nM] | IC50 (PIM-2) [nM] | IC50 (PIM-1; read-out: PIM1 IC50) [nM] | IC50 (PIM-1; [1]) [nM]
COc1ccc(-c2nnc3c4c(c(NCC5CCN(C)CC5)nn23)N(C)CCO4)cc1 [Example 1, [3-(4-Methoxy-phenyl)-6-methyl-7,8-dihydro-6H-9-oxa-1,2,3a,4,6-pentaaza-cyclopenta[a]naphthalen-5-yl]-(1-methyl-piperidin-4-ylmethyl)-amine] | 100 to 1000 | > 1000 | – | –
CN1CCC(Nc2nn3c(-c4cccc(OC(F)(F)F)c4)nnc3c3c2OCCN3C)CC1 [Example 3, (1-Methyl-piperidin-4-yl)-[9-methyl-3-(3-trifluoromethoxy-phenyl)-8,9-dihydro-7H-6-oxa-1,2,3a,4,9-pentaaza-cyclopenta[a]naphthalen-5-yl]-amine] | 100 to 1000 | > 1000 | – | –
COc1ccc(-c2nnc3c4c(c(NCCN5CCOCC5)nn23)N(C)CCO4)cc1 [Example 4, [3-(4-Methoxy-phenyl)-6-methyl-7,8-dihydro-6H-9-oxa-1,2,3a,4,6-pentaaza-cyclopenta[a]naphthalen-5-yl]-(2-morpholin-4-yl-ethyl)-amine] | 100 to 1000 | > 1000 | 811 | –
CN1CCOc2c(NCC3CC3)nn3c(-c4cccc(OC(F)(F)F)c4)nnc3c21 [Example 8, Cyclopropylmethyl-[9-methyl-3-(3-trifluoromethoxy-phenyl)-8,9-dihydro-7H-6-oxa-1,2,3a,4,9-pentaaza-cyclopenta[a]naphthalen-5-yl]-amine] | 100 to 1000 | > 1000 | – | –
CN1CCOc2c(NCc3ccc(F)cc3)nn3c(-c4cccc(OC(F)(F)F)c4)nnc3c21 [Example 10, (4-Fluoro-benzyl)-[9-methyl-3-(3-trifluoromethoxy-phenyl)-8,9-dihydro-7H-6-oxa-1,2,3a,4,9-pentaaza-cyclopenta[a]naphthalen-5-yl]-amine] | – | > 1000 | – | > 1000
CCN1CCOc2c1c(NCC1CC1)nn1c(-c3cccc(OC(F)(F)F)c3)nnc21 [Example 11, Cyclopropylmethyl-[6-ethyl-3-(3-trifluoromethoxy-phenyl)-7,8-dihydro-6H-9-oxa-1,2,3a,4,6-pentaaza-cyclopenta[a]naphthalen-5-yl]-amine] | – | 100 to 1000 | – | < 100
CCN1CCOc2c(NC3CCOCC3)nn3c(-c4cccc(OC(F)(F)F)c4)nnc3c21 [Example 14, [9-Ethyl-3-(3-trifluoromethoxy-phenyl)-8,9-dihydro-7H-6-oxa-1,2,3a,4,9-pentaaza-cyclopenta[a]naphthalen-5-yl]-(tetrahydro-pyran-4-yl)-amine] | 100 to 1000 | > 1000 | 583 | –
COc1ccc(-c2nnc3c4c(c(NCc5ccc(F)cc5)nn23)N(C)CCN4C)cc1 [Example 15, (4-Fluoro-benzyl)-[3-(4-methoxy-phenyl)-6,9-dimethyl-6,7,8,9-tetrahydro-1,2,3a,4,6,9-hexaaza-cyclopenta[a]naphthalen-5-yl]-amine] | > 1000 | > 1000 | 4350 | –
CN1CCC(CN(C)c2nn3c(-c4cccc(OC(F)(F)F)c4)nnc3c3c2OCCN3C)CC1 [Example 18, Methyl-(1-methyl-piperidin-4-ylmethyl)-[9-methyl-3-(3-trifluoromethoxy-phenyl)-8,9-dihydro-7H-6-oxa-1,2,3a,4,9-pentaaza-cyclopenta[a]naphthalen-5-yl]-amine] | – | > 1000 | – | > 1000
CN1CCOc2c1c(N[C@H]1CC[C@H](O)CC1)nn1c(-c3cccc(OC(F)(F)F)c3)nnc21 [Example 19, 4-[6-Methyl-3-(3-trifluoromethoxy-phenyl)-7,8-dihydro-6H-9-oxa-1,2,3a,4,6-pentaaza-cyclopenta[a]naphthalen-5-ylamino]-cyclohexanol] | – | – | – | < 100
CN1CCOc2c(NCCCO)nn3c(-c4cccc(OC(F)(F)F)c4)nnc3c21 [Example 22, 3-[9-Methyl-3-(3-trifluoromethoxy-phenyl)-8,9-dihydro-7H-6-oxa-1,2,3a,4,9-pentaaza-cyclopenta[a]naphthalen-5-ylamino]-propan-1-ol] | 100 to 1000 | > 1000 | 678 | –
COc1ccc(CNc2nn3c(-c4cccc(OC(F)(F)F)c4)nnc3c3c2N(C)CCO3)cc1OC [Example 24, (3,4-Dimethoxy-benzyl)-[6-methyl-3-(3-trifluoromethoxy-phenyl)-7,8-dihydro-6H-9-oxa-1,2,3a,4,6-pentaaza-cyclopenta[a]naphthalen-5-yl]-amine] | 100 to 1000 | > 1000 | – | –
CN1CCC(CNc2nn3c(-c4ccc5[nH]ccc5c4)nnc3c3c2N(C)CCO3)CC1 [Example 33, [3-(1H-Indol-5-yl)-6-methyl-7,8-dihydro-6H-9-oxa-1,2,3a,4,6-pentaaza-cyclopenta[a]naphthalen-5-yl]-(1-methyl-piperidin-4-ylmethyl)-amine] | 100 to 1000 | > 1000 | – | –
CN1CCOc2c1c(N(C)[C@H]1CC[C@H](O)CC1)nn1c(-c3cccc(OC(F)(F)F)c3)nnc21 [Example 35, 4-{Methyl-[6-methyl-3-(3-trifluoromethoxy-phenyl)-7,8-dihydro-6H-9-oxa-1,2,3a,4,6-pentaaza-cyclopenta[a]naphthalen-5-yl]-amino}-cyclohexanol] | – | < 100 | – | < 100
CC1COc2c(NCC3CCN(C)CC3)nn3c(-c4cccc(OC(F)(F)F)c4)nnc3c2N1C (stereo not shown) [Example 38, [8,9-Dimethyl-3-(3-trifluoromethoxy-phenyl)-8,9-dihydro-7H-6-oxa-1,2,3a,4,9-pentaaza-cyclopenta[a]naphthalen-5-yl]-(1-methyl-piperidin-4-ylmethyl)-amine] | 100 to 1000 | – | – | –
CC1COc2c(c(NCC3CCN(C)CC3)nn3c(-c4cccc(OC(F)(F)F)c4)nnc23)N1C (stereo not shown) [Example 39, [6,7-Dimethyl-3-(3-trifluoromethoxy-phenyl)-7,8-dihydro-6H-9-oxa-1,2,3a,4,6-pentaaza-cyclopenta[a]naphthalen-5-yl]-(1-methyl-piperidin-4-ylmethyl)-amine] | – | 100 to 1000 | – | < 100
CN1CCC(CNc2nn3c(-c4cccc(OC(F)(F)F)c4)nnc3c3c2OCCO3)CC1 [Example 41, (1-Methyl-piperidin-4-ylmethyl)-[3-(3-trifluoromethoxy-phenyl)-7,8-dihydro-6,9-dioxa-1,2,3a,4-tetraaza-cyclopenta[a]naphthalen-5-yl]-amine] | – | 100 to 1000 | – | < 100
CN1CCOc2c(NCCN3CCNCC3)nn3c(-c4cccc(OC(F)(F)F)c4)nnc3c21 [Example 42, [9-Methyl-3-(3-trifluoromethoxy-phenyl)-8,9-dihydro-7H-6-oxa-1,2,3a,4,9-pentaaza-cyclopenta[a]naphthalen-5-yl]-(2-piperazin-1-yl-ethyl)-amine] | 100 to 1000 | – | – | –
CNC1CCN(c2nn3c(-c4cccc(OC(F)(F)F)c4)nnc3c3c2OCCN3C)CC1 [Example 44, Methyl-{1-[9-methyl-3-(3-trifluoromethoxy-phenyl)-8,9-dihydro-7H-6-oxa-1,2,3a,4,9-pentaaza-cyclopenta[a]naphthalen-5-yl]-piperidin-4-yl}-amine] | 100 to 1000 | > 1000 | – | –
CN1CCOc2c(N(C)C3CCNCC3)nn3c(-c4cccc(OC(F)(F)F)c4)nnc3c21 [Example 45, Methyl-[9-methyl-3-(3-trifluoromethoxy-phenyl)-8,9-dihydro-7H-6-oxa-1,2,3a,4,9-pentaaza-cyclopenta[a]naphthalen-5-yl]-piperidin-4-yl-amine] | 100 to 1000 | > 1000 | – | –
CN1CCOc2c(N3CCC(N)CC3)nn3c(-c4cccc(OC(F)(F)F)c4)nnc3c21 [Example 46, 1-[9-Methyl-3-(3-trifluoromethoxy-phenyl)-8,9-dihydro-7H-6-oxa-1,2,3a,4,9-pentaaza-cyclopenta[a]naphthalen-5-yl]-piperidin-4-ylamine] | 100 to 1000 | > 1000 | – | –
CC1COc2c(c(N3CCC4(CC3)CC(N)C4)nn3c(-c4cccc(OC(F)(F)F)c4)nnc23)N1C (stereo not shown) [Example 50, 7-[6,7-Dimethyl-3-(3-trifluoromethoxy-phenyl)-7,8-dihydro-6H-9-oxa-1,2,3a,4,6-pentaaza-cyclopenta[a]naphthalen-5-yl]-7-aza-spiro[3.5]non-2-ylamine] | – | – | – | < 100
CN(CC1CCNCC1)c1nn2c(-c3cccc(OC(F)(F)F)c3)nnc2c2c1N(C)CCO2 [Example 64, Methyl-[6-methyl-3-(3-trifluoromethoxy-phenyl)-7,8-dihydro-6H-9-oxa-1,2,3a,4,6-pentaaza-cyclopenta[a]naphthalen-5-yl]-piperidin-4-ylmethyl-amine] | – | – | – | < 100
CN1CCOc2c1c(N1CCC3(CCCNC3)CC1)nn1c(-c3cccc(OC(F)(F)F)c3)nnc21 [Example 67, 5-(2,9-Diaza-spiro[5.5]undec-9-yl)-6-methyl-3-(3-trifluoromethoxy-phenyl)-7,8-dihydro-6H-9-oxa-1,2,3a,4,6-pentaaza-cyclopenta[a]naphthalene] | – | – | – | < 100
CN1CCOc2c1c(N[C@H]1CC[C@@H](N)CC1)nn1c(-c3cccc(OC(F)(F)F)c3)nnc21 [Example 70, N-[6-Methyl-3-(3-trifluoromethoxy-phenyl)-7,8-dihydro-6H-9-oxa-1,2,3a,4,6-pentaaza-cyclopenta[a]naphthalen-5-yl]-cyclohexane-1,4-diamine] | – | – | – | < 100
CN1CCOc2c1c(N[C@H]1CC[C@H](N)CC1)nn1c(-c3cccc(OC(F)(F)F)c3)nnc21 [Example 71, N-[6-Methyl-3-(3-trifluoromethoxy-phenyl)-7,8-dihydro-6H-9-oxa-1,2,3a,4,6-pentaaza-cyclopenta[a]naphthalen-5-yl]-cyclohexane-1,4-diamine] | – | – | – | < 100
CC(C)NC1CC2(CCN(c3nn4c(-c5cccc(OC(F)(F)F)c5)nnc4c4c3N(C)CCO4)CC2)C1 [Example 87, Isopropyl-{7-[6-methyl-3-(3-trifluoromethoxy-phenyl)-7,8-dihydro-6H-9-oxa-1,2,3a,4,6-pentaaza-cyclopenta[a]naphthalen-5-yl]-7-aza-spiro[3.5]non-2-yl}-amine] | – | – | – | < 100
